Laboratory results published in patent US10829481B2, “Benzimidazole derivatives as modulators of ROR-gamma” (Vitae Pharmaceuticals, LLC, priority 2016, dated 2020).
pIC50, pKi: −log10 of the molar value.

Columns and labels:
[1] = molecular target: recombinant RORγ Ligand Binding Domain (LBD) protein (Homo sapiens (Human), UniProt P51449); test: Radio-Ligand RORγ Binding Assay (Assay 1); details: competition with 25-hydroxy [26,27-3H]-cholesterol, SPA
How it was run: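 Scintillation proximity competition against 25-hydroxy [26,27-^3H]-cholesterol (8.6 nM solution) for 6×His-GST-tagged RORγ LBD (24 nM solution) in HEPES pH 7.4 with CHAPS, β-octylglucopyranoside and DTT; semi-log compound dilutions, ~1 h total at rt with poly-Lys YSi beads. IC50 from four-parameter fit; Ki derived from [RL] and radioligand KD.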

[2] = molecular target: full-length RORγt in Jurkat cells (Homo sapiens (Human), UniProt P51449); test: RORγt 5×RORE Assay in Jurkat Cells (Assay 2); type: cell-based; details: 5×RORE Nanoluc luciferase reporter
Chain of full-length RORγt in Jurkat cells (P51449 other isoform, or with tags, fused parts or gaps): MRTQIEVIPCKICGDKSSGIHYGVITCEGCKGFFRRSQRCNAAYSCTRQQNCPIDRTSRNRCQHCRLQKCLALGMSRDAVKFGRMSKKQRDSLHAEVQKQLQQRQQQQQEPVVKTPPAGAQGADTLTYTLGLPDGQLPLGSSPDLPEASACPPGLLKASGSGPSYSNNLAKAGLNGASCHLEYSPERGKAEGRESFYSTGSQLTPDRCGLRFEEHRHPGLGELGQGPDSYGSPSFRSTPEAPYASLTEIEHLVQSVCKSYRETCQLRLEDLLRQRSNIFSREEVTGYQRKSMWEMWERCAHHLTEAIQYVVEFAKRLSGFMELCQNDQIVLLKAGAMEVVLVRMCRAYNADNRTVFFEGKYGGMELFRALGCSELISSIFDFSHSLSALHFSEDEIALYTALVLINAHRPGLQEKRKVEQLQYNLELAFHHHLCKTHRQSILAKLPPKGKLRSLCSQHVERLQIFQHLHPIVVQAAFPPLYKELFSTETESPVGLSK

Chain of recombinant RORγ Ligand Binding Domain (LBD) protein (P51449 269-508): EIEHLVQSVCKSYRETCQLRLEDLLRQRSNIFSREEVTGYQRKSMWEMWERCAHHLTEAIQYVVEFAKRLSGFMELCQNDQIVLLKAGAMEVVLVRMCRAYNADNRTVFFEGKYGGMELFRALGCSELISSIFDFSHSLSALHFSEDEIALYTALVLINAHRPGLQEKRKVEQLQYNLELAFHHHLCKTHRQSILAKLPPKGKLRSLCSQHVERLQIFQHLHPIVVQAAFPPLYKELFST

Compound | pKi [1] | pIC50 [2]
CCS(=O)(=O)c1ccc(CNC(=O)c2ccc3c(c2)nc(C(F)(F)F)n3Cc2cccc3c2OC(F)(F)O3)nc1 [I-63, 1-((2,2-difluorobenzo[d][1,3]dioxol-4-yl)methyl)-N-((5-(ethylsulfonyl)pyridin-2-yl)methyl)-2-(trifluoromethyl)-1H-benzo[d]imidazole-5-carboxamide] | > 7.00 | > 7.00
CCS(=O)(=O)c1ccc(CNC(=O)c2ccc3c(c2)nc(C2CC2)n3Cc2cccc3c2OC(F)(F)O3)nc1 [I-64, 2-cyclopropyl-1-((2,2-difluorobenzo[d][1,3]dioxol-4-yl)methyl)-N-((5-(ethylsulfonyl)pyridin-2-yl)methyl)-1H-benzo[d]imidazole-5-carboxamide] | > 7.00 | > 7.00
CCS(=O)(=O)c1ccc(CNC(=O)c2ccc3c(c2)nc(C2CCC2)n3Cc2cccc3c2OC(F)(F)O3)nc1 [I-65, 2-cyclobutyl-1-((2,2-difluorobenzo[d][1,3]dioxol-4-yl)methyl)-N-((5-(ethylsulfonyl)pyridin-2-yl)methyl)-1H-benzo[d]imidazole-5-carboxamide] | > 7.00 | > 7.00
CCS(=O)(=O)c1ccc(CNC(=O)c2ccc3c(c2)nc(C(C)(F)F)n3Cc2cccc3c2OC(F)(F)O3)nc1 [I-66, 1-((2,2-difluorobenzo[d][1,3]dioxol-4-yl)methyl)-2-(1,1-difluoroethyl)-N-((5-(ethylsulfonyl)pyridin-2-yl)methyl)-1H-benzo[d]imidazole-5-carboxamide] | > 7.00 | > 7.00
CCS(=O)(=O)c1ccc(CNC(=O)c2ccc3c(c2)nc(C2(F)CC2)n3Cc2cccc3c2OC(F)(F)O3)nc1 [I-67, 1-((2,2-difluorobenzo[d][1,3]dioxol-4-yl)methyl)-N-((5-(ethylsulfonyl)pyridin-2-yl)methyl)-2-(1-fluorocyclopropyl)-1H-benzo[d]imidazole-5-carboxamide] | > 7.00 | > 7.00
CS(=O)(=O)c1ccc(CNC(=O)c2ccc3c(c2)nc(C2(F)CC2)n3Cc2cccc3c2OC(F)(F)O3)nc1 [I-68, 1-((2,2-difluorobenzo[d][1,3]dioxol-4-yl)methyl)-2-(1-fluorocyclopropyl)-N-((5-(methylsulfonyl)pyridin-2-yl)methyl)-1H-benzo[d]imidazole-5-carboxamide] | > 7.00 | > 7.00
CCS(=O)(=O)c1ccc(CNC(=O)c2ccc3c(c2)nc(C2(F)CCC2)n3Cc2cccc3c2OC(F)(F)O3)nc1 [I-69, 1-((2,2-difluorobenzo[d][1,3]dioxol-4-yl)methyl)-N-((5-(ethylsulfonyl)pyridin-2-yl)methyl)-2-(1-fluorocyclobutyl)-1H-benzo[d]imidazole-5-carboxamide] | > 7.00 | > 7.00
CS(=O)(=O)c1ccc(CNC(=O)c2ccc3c(c2)nc(C(F)(F)F)n3Cc2cccc3c2OC(F)(F)O3)nc1 [I-70, 1-((2,2-difluorobenzo[d][1,3]dioxol-4-yl)methyl)-N-((5-(methylsulfonyl)pyridin-2-yl)methyl)-2-(trifluoromethyl)-1H-benzo[d]imidazole-5-carboxamide] | > 7.00 | > 7.00
CS(=O)(=O)N1CCC(CNC(=O)c2ccc3c(c2)nc(C(F)(F)F)n3Cc2cccc3c2OC(F)(F)O3)CC1 [I-71, 1-((2,2-difluorobenzo[d][1,3]dioxol-4-yl)methyl)-N-((1-(methylsulfonyl)piperidin-4-yl)methyl)-2-(trifluoromethyl)-1H-benzo[d]imidazole-5-carboxamide] | > 7.00 | > 7.00
CS(=O)(=O)N1CCC(CNC(=O)c2ccc3c(c2)nc(C2CC2)n3Cc2cccc3c2OC(F)(F)O3)CC1 [I-72, 2-cyclopropyl-1-((2,2-difluorobenzo[d][1,3]dioxol-4-yl)methyl)-N-((1-(methylsulfonyl)piperidin-4-yl)methyl)-1H-benzo[d]imidazole-5-carboxamide] | > 7.00 | > 7.00
CS(=O)(=O)N1CCC(CNC(=O)c2ccc3c(c2)nc(C2(F)CC2)n3Cc2cccc3c2OC(F)(F)O3)CC1 [I-73, 1-((2,2-difluorobenzo[d][1,3]dioxol-4-yl)methyl)-2-(1-fluorocyclopropyl)-N-((1-(methylsulfonyl)piperidin-4-yl)methyl)-1H-benzo[d]imidazole-5-carboxamide] | > 7.00 | > 7.00
COC(=O)CS(=O)(=O)N1CCC(CNC(=O)c2ccc3c(c2)nc(C(F)(F)F)n3Cc2cccc3c2OC(F)(F)O3)CC1 [I-74, methyl 2-((4-((1-((2,2-difluorobenzo[d][1,3]dioxol-4-yl)methyl)-2-(trifluoromethyl)-1H-benzo[d]imidazole-5-carboxamido)methyl)piperidin-1-yl)sulfonyl)acetate] | > 7.00 | > 7.00
CNC(=O)CS(=O)(=O)N1CCC(CNC(=O)c2ccc3c(c2)nc(C(F)(F)F)n3Cc2cccc3c2OC(F)(F)O3)CC1 [I-75, 1-((2,2-difluorobenzo[d][1,3]dioxol-4-yl)methyl)-N-((1-((2-(methylamino)-2-oxoethyl)sulfonyl)piperidin-4-yl)methyl)-2-(trifluoromethyl)-1H-benzo[d]imidazole-5-carboxamide] | > 7.00 | > 7.00
COC(=O)C(NC(=O)c1ccc2c(c1)nc(C(F)(F)F)n2Cc1cccc2c1OC(F)(F)O2)C1CCN(S(C)(=O)=O)CC1 (centres unmarked) [I-76, methyl 2-(1-((2,2-difluorobenzo[d][1,3]dioxol-4-yl)methyl)-2-(trifluoromethyl)-1H-benzo[d]imidazole-5-carboxamido)-2-(1-(methylsulfonyl)piperidin-4-yl)acetate] | > 7.00 | > 7.00
CNS(=O)(=O)N1CCC(CNC(=O)c2ccc3c(c2)nc(C(F)(F)F)n3Cc2cccc3c2OC(F)(F)O3)CC1 [I-77, 1-((2,2-difluorobenzo[d][1,3]dioxol-4-yl)methyl)-N-((1-(N-methylsulfamoyl)piperidin-4-yl)methyl)-2-(trifluoromethyl)-1H-benzo[d]imidazole-5-carboxamide] | > 7.00 | > 7.00
NC(=O)CS(=O)(=O)N1CCC(CNC(=O)c2ccc3c(c2)nc(C(F)(F)F)n3Cc2cccc3c2OC(F)(F)O3)CC1 [I-78, N-((1-((2-amino-2-oxoethyl)sulfonyl)piperidin-4-yl)methyl)-1-((2,2-difluorobenzo[d][1,3]dioxol-4-yl)methyl)-2-(trifluoromethyl)-1H-benzo[d]imidazole-5-carboxamide] | > 7.00 | > 7.00
CNC(=O)CS(=O)(=O)N1CCC(CNC(=O)c2ccc3c(c2)nc(C2CC2)n3Cc2cccc3c2OC(F)(F)O3)CC1 [I-79, 2-cyclopropyl-1-((2,2-difluorobenzo[d][1,3]dioxol-4-yl)methyl)-N-((1-((2-(methylamino)-2-oxoethyl)sulfonyl)piperidin-4-yl)methyl)-1H-benzo[d]imidazole-5-carboxamide] | > 7.00 | 6.00 to 7.00
CCS(=O)(=O)c1ccc([C@H](CO)NC(=O)c2ccc3c(c2)nc(C(F)(F)F)n3Cc2cccc3c2OCC3)cc1 [I-80, (R)-1-((2,3-dihydrobenzofuran-7-yl)methyl)-N-(1-(4-(ethylsulfonyl)phenyl)-2-hydroxyethyl)-2-(trifluoromethyl)-1H-benzo[d]imidazole-5-carboxamide] | > 7.00 | 6.00 to 7.00
CCS(=O)(=O)c1ccc([C@H](CO)NC(=O)c2ccc3c(c2)nc(C(F)(F)F)n3Cc2cccc3c2OCO3)cc1 [I-81, (R)-1-(benzo[d][1,3]dioxol-4-ylmethyl)-N-(1-(4-(ethylsulfonyl)phenyl)-2-hydroxyethyl)-2-(trifluoromethyl)-1H-benzo[d]imidazole-5-carboxamide] | > 7.00 | > 7.00
CCS(=O)(=O)c1ccc(CNC(=O)c2ccc3c(c2)nc(C(F)(F)F)n3Cc2cc(OC)cc(OC)c2)cc1 [I-82, 1-(3,5-dimethoxybenzyl)-N-(4-(ethylsulfonyl)benzyl)-2-(trifluoromethyl)-1H-benzo[d]imidazole-5-carboxamide] | > 7.00 | < 6.00
CCS(=O)(=O)c1ccc(CNC(=O)c2ccc3c(c2)nc(C(F)(F)F)n3Cc2ccc(OC)c(C#N)c2)cc1 [I-83, 1-(3-cyano-4-methoxybenzyl)-N-(4-(ethylsulfonyl)benzyl)-2-(trifluoromethyl)-1H-benzo[d]imidazole-5-carboxamide] | > 7.00 | 6.00 to 7.00
CCS(=O)(=O)c1ccc(CNC(=O)c2ccc3c(c2)nc(C(F)(F)F)n3Cc2ccc(OC(F)(F)F)cc2)cc1 [I-84, N-(4-(ethylsulfonyl)benzyl)-1-(4-(trifluoromethoxy)benzyl)-2-(trifluoromethyl)-1H-benzo[d]imidazole-5-carboxamide] | > 7.00 | 6.00 to 7.00
CCS(=O)(=O)c1ccc(CNC(=O)c2ccc3c(c2)nc(C(F)(F)F)n3Cc2ccc(C#N)cc2)cc1 [I-85, 1-(4-cyanobenzyl)-N-(4-(ethylsulfonyl)benzyl)-2-(trifluoromethyl)-1H-benzo[d]imidazole-5-carboxamide] | > 7.00 | < 6.00
CCS(=O)(=O)c1ccc(CNC(=O)c2ccc3c(c2)nc(C(F)(F)F)n3Cc2cccc(OC)c2)cc1 [I-88, N-(4-(ethylsulfonyl)benzyl)-1-(3-methoxybenzyl)-2-(trifluoromethyl)-1H-benzo[d]imidazole-5-carboxamide] | > 7.00 | > 7.00
CCS(=O)(=O)c1ccc(CNC(=O)c2ccc3c(c2)nc(C(F)(F)F)n3Cc2ccnc(OC)c2)cc1 [I-89, N-(4-(ethylsulfonyl)benzyl)-1-((2-methoxypyridin-4-yl)methyl)-2-(trifluoromethyl)-1H-benzo[d]imidazole-5-carboxamide] | > 7.00 | 6.00 to 7.00
